Literature values as cited in publication PMC6311693 (ACS Central Science, 2018).

Conditions: 8 mg/kg; musculoskeletal system, increases in creatine phosphokinase

For `CCCCCCCCCC(=O)N[C@@H](Cc1c[nH]c2ccccc12)C(=O)N[C@H](CC(N)=O)C(=O)N[C@@H](CC(=O)O)C(=O)N[C@@H]1C(=O)NCC(=O)N[C@@H](CCCN)C(=O)N[C@@H](CC(=O)O)C(=O)N[C@H](C)C(=O)N[C@@H](CC(=O)O)C(=O)NCC(=O)N[C@H](CO)C(=O)N[C@@H]([C@H](C)CC(=O)O)C(=O)N[C@@H](CC(=O)c2ccccc2N)C(=O)O[C@@H]1C` [daptomycin], the “adverse effects in phase 1 clinical trials” value is listed as “unacceptable adverse effects”.
